Measurements: US10604480B2, “(Thio, oxo, and seleno) semicarbazone derivatives and their use for treating cancer” (RUTGERS, THE STATE UNIVERSITY OF NEW JERSEY, priority 2015, dated 2020)

Legend:
HEK293 cells = assay: Intracellular [Zn2+]free imaging with FluoZin-3-AM, HEK293 cells; assay type: cell-based; details: for increase of intracellular [Zn2+]free (FZ3-AM fluorescence): HEK293 (non-cancer, p53-WT), complete media, confocal microscopy
Procedure: (§1) To minimize the potential for Zn^2+ contamination and contributions from poorly defined elements in complete media (e.g. FBS), cells were treated and imaged in Ca^2+ and Mg^2+-free Earle's Balanced Salt Solution supplemented with 10 mM HEPES pH 7.4 (EBSS/H (−)Ca/Mg). Excess ZnCl2 with the Zn^2+ ionophore pyrithione (PYR) was used as a positive control. Excess membrane-permeable Zn^2+ chelator N,N,N′,N′-tetrakis(2-pyridylmethyl)ethane-1,2-diamine (TPEN) was used as a negative control.
To normalize for differential dye loading, cells were then sequentially treated with excess PYR/ZnCl2, imaged, treated with TPEN, and imaged again. PYR/ZnCl2 and TPEN served to saturate and apoize the intracellular FZ3, respectively.
TOV112D or HEK293 cells (40,000 cells/well) were plated on either 8-well BD Falcon chambered culture slides (Corning Life Sciences) or 8-chambered #1.5 Nunc Lab-Tek II chambered coverglasses (Thermo Scientific) treated with poly-L-lysine. After 48 h, cells were washed 2×5 m in serum-free media and incubated with 1 μM FZ3-AM for 40 m at 37° C. Cells were then washed 2×5 m in either EBSS/H (−)Ca/Mg or phenol-red free DMEM+10% FBS containing the indicated treatments for 20 m before imaging. For nuclear colocalization, 1 μg/mL Hoechst 33342 was also included. Cells were imaged using a Zeiss LSM50 META NLO confocal microscope equipped with 37° C. environmental control chamber. FZ3 and Hoechst 33342 were excited at 488 nm (argon laser) and 790 nm (Chameleon Ti:sapphire laser), respectively. To determine the kinetics of fluorescence change, each background-subtracted image in the time-lapse series was integrated in ImageJ and normalized to the integrated fluorescence of the first frame after treatment. For quantification of intracellular [Zn^2+]free, each cell was analyzed in the treated, 50 μM PYR/ZnCl2 (1:1), and 100 μM TPEN images by taking the mean fluorescence of an ROI inside the cell subtracted by an ROI immediately outside the cell measured in ImageJ. The [Zn^2+]free for each cell was then calculated by Eqn 2:
[formula] […] To minimize the effects of outliers the lowest and highest 5% of cells in each series were rejected, and the remaining values averaged to give the value from that experiment. The number of cells analyzed in each trial ranged from 54-163. For nuclear colocalization, treated, PYR/ZnCl2, and TPEN treated images costained with Hoechst 33342 were aligned and each pixel subjected to Eqn. 2 in MATLAB (MathWorks).

[1] = Liposome import assay (RZ-3 fluorescence); details: for Zn2+ shuttling into liposomes: external [Zn2+]free 10 μM
Procedure: However, in complete media containing 10% fetal bovine serum (FBS), Zn^2+-binding proteins from the serum (e.g. albumin) necessarily compete for Zn^2+ with any putative MC, making the effective [Zn^2+]free much lower than [Zn^2+]total.
DOPC-liposomes were prepared by film rehydration and extrusion followed by gel filtration and diluted to an OD600=0.06 in buffer. The size distribution of the liposomes was determined by dynamic light scattering (DLS) using a Malvern Zetasizer Nano ZS. Fluorescence measurements were taken on a Horiba Fluoromax-4 spectrofluorimeter in a 5×5 mm quartz cuvette with λex/λem=550/572 nm for RZ-3 and 490/515 nm for calcein. Initial Zn^2+ import/export was quantified by fitting the first 10-30 s of data after each treatment to a line and converted to units of flux using the following Eqn 1:
[formula] where Ji is the initial flux, ΔF/Δt is the slope of the fit line, Fmax is RZ-3 fluorescence in the presence of saturating Zn^2+ and 1% TritonX-100, Fmin is RZ-3 fluorescence in the presence of excess EDTA and 1% TritonX-100, [RZ3] is the concentration of encapsulated RZ-3, and SA/Vol is the surface area to volume ratio calculated assuming hollow spheres of the mean diameter determined by DLS. Intracellular [Zn^2+]free Imaging

[2] = Liposomal leakage assay (calcein) and liposome size distribution
Procedure: To ensure that the fluorescence results were due to Zn^2+ transport and not to non-specific disruption of liposomal membranes, a liposomal leakage assay was performed using the self-quenching fluorophore calcein. When calcein is encapsulated at concentrations above 4 mM its fluorescence is decreased via self-quenching. Leakage is detected by a fluorescence increase as the dye dilutes and its fluorescence dequenches. […] Disruption of liposomes can also be detected by alteration of their size distribution.
DOPC-liposomes were prepared by film rehydration and extrusion followed by gel filtration and diluted to an OD600=0.06 in buffer. The size distribution of the liposomes was determined by dynamic light scattering (DLS) using a Malvern Zetasizer Nano ZS. Fluorescence measurements were taken on a Horiba Fluoromax-4 spectrofluorimeter in a 5×5 mm quartz cuvette with λex/λem=550/572 nm for RZ-3 and 490/515 nm for calcein. Initial Zn^2+ import/export was quantified by fitting the first 10-30 s of data after each treatment to a line and converted to units of flux using the following Eqn 1: […]

TOV112D cells = assay: Intracellular [Zn2+]free imaging with FluoZin-3-AM, TOV112D cells; assay type: cell-based; details: ZMC1 alone without ZnCl2, EBSS/H (−)Ca/Mg
Procedure: as §1
To normalize for differential dye loading, cells were then sequentially treated with excess PYR/ZnCl2, imaged, treated with TPEN, and imaged again. […]
TOV112D or HEK293 cells (40,000 cells/well) were plated on either 8-well BD Falcon chambered culture slides (Corning Life Sciences) or 8-chambered #1.5 Nunc Lab-Tek II chambered coverglasses (Thermo Scientific) treated with poly-L-lysine. […] To determine the kinetics of fluorescence change, each background-subtracted image in the time-lapse series was integrated in ImageJ and normalized to the integrated fluorescence of the first frame after treatment. For quantification of intracellular [Zn^2+]free, each cell was analyzed in the treated, 50 μM PYR/ZnCl2 (1:1), and 100 μM TPEN images by taking the mean fluorescence of an ROI inside the cell subtracted by an ROI immediately outside the cell measured in ImageJ. […]

| Compound | increase of intracellular [Zn2+]free (FZ3-AM fluorescence) (HEK293 cells) | Zn2+ shuttling into liposomes [1] | calcein fluorescence increase (liposome leakage) ([2]; highest concentrations of ZMC1 and ZnCl2) | size distribution of liposomes ([2]; highest concentrations of ZnCl2 and ZMC1) | increase in intracellular [Zn2+]free, ZMC1 alone (TOV112D cells) | increase in intracellular [Zn2+]free, ZMC1 alone (HEK293 cells; HEK293, ZMC1 alone without ZnCl2, EBSS/H (−)Ca/Mg) | ability to cross liposomal or cellular membranes [1] | RZ-3 fluorescence after reversing [Zn2+]free gradient with excess external EDTA ([1]; ZMC1 added after EDTA, export of Zn2+ from liposomes) |
| --- | --- | --- | --- | --- | --- | --- | --- | --- |
| C/C(=N\NC(=O)N1CCC1)c1ccccn1 [Example A6] | did not | shuttled Zn^2+ into the liposomes |  |  |  |  |  |  |
| C/C(=N\NC(=S)N1CCC1)c1ccccn1 [ZMC1] | increased |  | a significant fluorescence increase was not detected | identical to that of untreated liposomes | neither cell type showed an increase | neither cell type showed an increase | can cross biological membranes both as free drug and drug-Zn^2+ complex | time dependent decrease |
| O=C(O)CN(CC(=O)O)CC(=O)O [NTA] | did not | did not |  |  |  |  | cannot cross either liposomal or cellular membranes |  |
